Results on 2 compounds are retold here after patent US20050159485A1, “Combinations for the treatment of immunoinflammatory disorders and proliferative skin diseases” (priority 2002, published 2005).

Structures are written as SMILES.

Test [1] deals with TNFα secretion from stimulated white blood cells. The test is described as follows: TNFα ELISA, white blood cells stimulated with phorbol 12-myristate 13-acetate and ionomycin. The class given is cell-based, human. Also on record: inhibition of TNFα secretion: dose or concentration left out as unconfirmed. As to conditions: PMA/ionomycin. As for the experimental part: (§1) Stock solutions at 1.6 mg/ml of alprostadil, and 4.0 mg/ml of […] (Sigma-Aldrich, St. Louis, Mo.; catalog numbers P5515 and R-2625, respectively) were made in dimethylsulfoxide (DMSO). The alprostadil master plates were made by adding 25 μl of the concentrated stock solution to columns 3, 9, and 15 (rows C through N) of a polypropylene 384-well storage plate that had been pre-filled with 75 μl of anhydrous DMSO. Using a TomTec Quadra Plus liquid handler, the 25 μl of alprostadil stock solution was serially diluted four times into the adjacent columns (columns 4-7, 10-13, 16-19). […] The tretinoin master plates were made by adding 25 μl of the concentrated stock solution to the appropriate wells (row C, columns 3-8; row C, columns 9-14; row C, columns 15-20; row I, columns 3-8; row I, columns 9-14; row I, columns 15-20) of the appropriate master polypropylene 384-well storage plate. These master plates had been pre-filled with 75 μl of anhydrous DMSO. Using the TomTec Quadra Plus liquid handler, the 25 μl was serially diluted four times in the adjacent rows (rows D-G, and J-M). […] Master plates were sealed and stored at −20° C. until ready for use.
The final alprostadil/tretinoin combination plates were generated by transferring 1 μl from each of the alprostadil and tretinoin master plates to a dilution plate containing 100 μl of media (RPMI; Gibco BRL, #11875-085), 10% Fetal Bovine Serum (Gibco BRL, #25140-097), 2% Penicillin/Streptomycin (Gibco BRL, #15140-122)) using the TomTec Quadra Plus liquid handler. This dilution plate was then mixed and a 10 μl aliquot transferred to the final assay plate, which had been pre-filled with 40 μl/well RPM media containing the appropriate stimulant to activate TNFα secretion (see below).
(§2) The compound dilution matrix was assayed using a TNFα ELISA method. Briefly, a […] suspension of diluted human white blood cells contained within each well of a polystyrene 384-well plate (NalgeNunc) was stimulated to secrete TNFα by treatment with a final concentration of 10 ng/ml phorbol 12-myristate 13-acetate (Sigma) and 750 ng/ml ionomycin (Sigma). Various concentrations of each test compound were added at the time of stimulation. After 16-18 hours of incubation at 37° C. in a humidified incubator, the plate was centrifuged and the supernatant transferred to a white opaque polystyrene 384 well plate (NalgeNunc, Maxisorb) coated with an anti-TNFα antibody (PharMingen, #18631D). After a two-hour incubation, the plate was washed (Tecan PowerWasher 384) with phosphate buffered saline (PBS) containing 0.1% Tween 20 (polyoxyethylene sorbitan monolaurate) and incubated for an additional one hour with another anti-TNFα antibody that was biotin labeled (PharMingen, 18642D) and horseradish peroxidase (HRP) coupled to strepavidin (PharMingen, #13047E).). After the plate was washed with 0.1% Tween 20/PBS, an HRP-luminescent substrate was added to each well and light intensity measured using a LJL Analyst plate luminometer. Sets of control wells contained a serial dilution of Cyclosporin A (Sigma) starting at a final concentration of 0.5 μg/ml.
The combination of 0.052 μM tretinoin and 0.004 μM alprostadil was able to suppress TNFα secretion by 42%. […] Maximal tretinoin efficacy (−36% TNFα suppression) is therefore maintained while reducing the concentration of total drug species by greater than 90% (0.052 μM tretionoin+0.004 μM alprostadil compared to 0.832 μM tretinoin alone).
(An ELISA detects its analyte on a solid surface through an enzyme-linked reagent.)

Test [2] shares this test system. Nature of the test: Secondary screen, TNFα ELISA, white blood cells stimulated using 1 μg/ml LPS. In kind it is cell-based, human. As for the experimental part:
as §1
This dilution plate was then mixed and a 10 μl aliquot transferred to the final assay plate, which had been pre-filled with 40 μl/well RPM media containing the appropriate stimulant to activate TNFα secretion (see below).
as §2
In this experiment, white blood cells were stimulated using 1 μg/ml LPS.

The mark [3] stands for this setting: Homo sapiens, Alprostadil 0.004 μM alone.
The mark [4] stands for this setting: Homo sapiens, Alprostadil 0.018 μM alone.
[5] abbreviates: Homo sapiens, Alprostadil 0.071 μM alone.
Where [6] appears, read: Homo sapiens, Tretinoin 0.052 μM alone.
The mark [7] stands for this setting: Homo sapiens, Tretinoin 0.208 μM alone.
The mark [8] stands for this setting: Homo sapiens, Tretinoin 0.832 μM alone.
Where [9] appears, read: Homo sapiens, Tretinoin 3.329 μM alone.
[10] abbreviates: Homo sapiens, Tretinoin 13.316 μM alone.

As a reminder, the inhibition is the percentage by which the read-out fell short of the control. Regarding `CCCCC[C@H](O)/C=C/[C@H]1[C@H](O)CC(=O)[C@@H]1CCCCCCC(=O)O` [Alprostadil, (11α, 13E, 15S)-11,15-dihydroxy-9-oxoprost-13-enoic acid], the inhibition at 0.004 µM is 33.3% in test [1] (setting [3]) and 44.6% in test [2] (setting [3]). In addition, the inhibition at 0.018 µM in test [1] (setting [4]) was 39.8%; in test [2] (setting [4]) it was 54.8%. In addition, the inhibition at 0.071 µM in test [1] (setting [5]) came to 50.5%; in test [2] (setting [5]), 71.5%. For the same compound, the inhibition at 0.283 µM in test [1] (Homo sapiens, Alprostadil 0.283 μM alone) came out at 53.8%. In addition, the inhibition at 1.13 µM in test [1] (Homo sapiens, Alprostadil 1.130 μM alone) is 56.8%. Besides, the “inhibition of TNFα secretion” value in test [1] (alprostadil alone) turned out to be 57%. In addition, the inhibition at 0.009 µM in test [2] (Homo sapiens, Alprostadil 0.009 μM alone) stood at 49.2%. In test [2] (Homo sapiens, Alprostadil 0.035 μM alone), this compound displayed an inhibition at 0.035 µM of 57.3%. In addition, the inhibition at 0.141 µM in test [2] (Homo sapiens, Alprostadil 0.141 μM alone) came to 74.3%. The inhibition at 0.282 µM in test [2] (Homo sapiens, Alprostadil 0.282 μM alone) was found to be 75.7%. The compound further yielded an inhibition at 0.564 µM in test [2] (Homo sapiens, Alprostadil 0.564 μM alone) of 79.5%. This compound had an inhibition at 1.128 µM in test [2] (Homo sapiens, Alprostadil 1.128 μM alone) of 81.6%. Besides, the “alprostadil concentration needed alone to attain 64.0% TNFα inhibition” value in test [2] (alprostadil alone) is ≥ 0.035 µM. The “maximal TNFα-inhibitory effect” value in test [2] (alprostadil alone, concentration of at least 1.128 μM) was 82%.

On to `CC1=C(/C=C/C(C)=C/C=C/C(C)=C/C(=O)O)C(C)(C)CCC1` [Tretinoin, 3,7-dimethyl-9-(2,6,6-trimethylcyclohex-1-enyl)nona-2,4,6,8-all-trans-tetraenoic acid], for which the inhibition at 0.052 µM amounted to 13.8% in test [1] (setting [6]) and 32.7% in test [2] (setting [6]). Besides, the inhibition at 0.208 µM stood at 28.7% in test [1] (setting [7]) and 32.5% in test [2] (setting [7]). The inhibition at 0.832 µM was 34.5% in test [1] (setting [8]) and 38.4% in test [2] (setting [8]). Besides, the inhibition at 3.329 µM in test [1] (setting [9]) came to 34.1%; in test [2] (setting [9]) it was 44.1%. Also, the inhibition at 13.316 µM worked out at 36.2% in test [1] (setting [10]) and 52.1% in test [2] (setting [10]). In test [1] (tretinoin alone, concentrations ranging from 0.83-13.3 μM), the “maximal inhibition of TNFα secretion” value stood at 36%. For the same compound, in test [2] (Homo sapiens, Tretinoin 0.104 μM alone), the inhibition at 0.104 µM stood at 35.1%. Testing at 0.416 µM in test [2] (Homo sapiens, Tretinoin 0.416 μM alone) gave an inhibition of 32.7%. In test [2] (Homo sapiens, Tretinoin 1.664 μM alone), this compound displayed an inhibition at 1.664 µM of 37.6%. Further, testing at 6.658 µM in test [2] (Homo sapiens, Tretinoin 6.658 μM alone) gave an inhibition of 48.7%. Besides, the TNFα inhibition entry in test [2] (tretinoin alone, concentrations from 6.7-13.3 μM) was “approximately 50%”.
